# Experimental data published in US20230250262A1, “CELLULOSIC PARTICLE” (FUJIFILM Business Innovation Corp., priority 2022, published 2023).
# Structures can show the parent of a compound that is named as a salt.
# Test: Octanol/water partition coefficient (O/W coefficient) of the second component
# Conditions: 1-octanol/water 1/1 by mass; value of the second component species
# Procedure: In this context, the octanol/water partition coefficient is a value calculated through the following.
# A sample is dissolved in a mixture of octanol and water in a ratio by mass of 1/1, and the concentration of the substance in the octanol (Co) and the concentration of the substance in the water (Cw) are measured; then the octanol/water partition coefficient (O/W coefficient) is calculated according to equation (1) below.
# O/W coefficient=Log(Co/Cw) (1)
# The concentration of the substance in the octanol (Co) and the concentration of the substance in the water (Cw) are measured as follows.
# The OECD test guideline is followed. More specifically, a sample is dissolved in a mixture of 1-octanol and water in a ratio by mass of 1/1, and the resulting solution is centrifuged until it completely separates into two layers. From the 1-octanol layer, an appropriate amount of octanol solution is pipetted. The tip of a syringe, into which air has been drawn in advance, is inserted into the water layer through the 1-octanol layer while the air is ejected, and the aqueous solution is sampled quickly.
# For each solution, the test concentration is determined using an ion chromatograph (Metrohm, 930 Compact IC).
row,SMILES,Second component Octanol/water partition coefficient
1,"CCCCCCCCCCCCCCCCCC(=O)N(CCO)CCO [Add21, stearic acid diethanolamide]",11
2,"CCCCCCCC/C=C\CCCCCCCC(=O)N(CCO)CCO [Add1, oleic acid diethanolamide]",6
3,"CCCCCCC(CCCC)(CCCC)Cc1ccc(O)cc1 [Add33, 4-2,2-dibutyl-octylphenol]",21
4,"CCCCCCCCCCCC(=O)NCC(C)O (stereo not shown) [Add22, lauric acid monoisopropanolamide]",4

# Same assay, conditions: 1-octanol/water (1/1 by mass)
row,logP,SMILES
1,4,"CC(C)COC(=O)CCCCC(=O)OCC(C)C [Add11, diisobutyl adipate, reference compound]"
2,0.9,"CCOC(=O)CC(O)(CC(=O)OCC)C(=O)OCC [Add10, triethyl citrate, reference compound]"

row,SMILES,logP
1,"CCCCCCCCCCCCc1ccc(O)cc1 [Add32, 4-dodecylphenol]",5
